Like-named read-outs stand apart in the source and are kept apart here. Peptide text beside a SMILES is read from it. * marks the point of attachment. X3 = O=C(Cn1cc(-c2ccc([N+](=O)[O-])cc2)nn1)*; X4 = O=C(Cn1cc(-c2c(O)ccc3ccccc23)nn1)*; X2 = COc1ccc(OC)c(-c2cn(CC(=O)*)nn2)c1; X1 = O=C(Cn1cc(-c2ccc(Cl)cc2Cl)nn1)*
Legend:
[1] = target: T1, Mcl-1 (UniProt P97287+Q07820); test: Competitive fluorescence anisotropy (FA) assay, FITC-NoxaB displacement from Mcl-1; assay type: binding
T1 construct: amino acid residues 152-189 of mouse Mcl-1 fused with amino acid residues 209-327 of; 8 x His (N); TEV site (N); made in house; host or cells: E. coli BL21(DE3)pLysS
T1 sequence (P97287 152-189 limits assumed): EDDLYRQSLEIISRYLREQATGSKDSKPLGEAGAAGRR
T1 sequence (Q07820 209-327 limits assumed): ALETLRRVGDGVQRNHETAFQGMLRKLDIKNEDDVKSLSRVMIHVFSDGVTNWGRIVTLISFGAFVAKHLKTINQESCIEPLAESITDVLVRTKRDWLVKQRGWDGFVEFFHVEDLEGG
Method: Fmoc, 9-fluorenylmethylcarbony. IC50 determined by non -linear regression of at least three experiments.
4. Fluorescence Anisotropy Binding Assay
Fluorescence anisotropy was carried out on a BMG Labtech clariostar microplate reader with a fluorescence anisotropy optic measuring at 482/530 nm. Low -binding, Corning 96 -well black plates were used and all reagents used in the assay were biological grade and purchased from Sigma Aldrich and Novabioche m. All solutions were made using MilliQ water .
Anisotropy values were automatically calculated using the following formula […]
Where r = anisotropy, l a = parallel emission light, lb = perpendicular emission light and I = total […]
KD was determined using GraphPad Prism Version 6.0 software, using the One Site – Total binding […]
Where Bmax is the maximum specific binding, KD is the equilibrium binding constant, and NS is the slope of nonspecific binding. […]
IC50 was determined using GraphPad Prism Version 6.0 software, using a four-parameter logistic model, according to precedent from Ottmann and co-workers.[5] Errors are the transformed greater extreme of the standard error. […]
For binding each well contained 10 µL of Mcl -1 protein in 10-fold dilutions (0.37 pM to 3.7 µM) […]
protein were dissolved in PBS: 0.05% Tween -20 buffer at pH 7.4. Reagents were incubated for 30 min at room temperature prior to reading. Bubbles were removed and 8 data points were generated.
Figure S 1: Fluorescence Anisotropy direct titration.
To confirm reproducibility of
(µ) and standard deviations (σ) were inputted into the following equation:
Inhibition screens were carried out using 10 nM Mcl -1, 5 nM fluorescently-tagged peptide and 100 µM of inhibitor. Compounds were dissolved in DMSO. […]
control (DMSO) were used to define the mini mum and maximum values and ensure the assay was […]
(1 picture or pasted object on this page, not shown here) […]
Bubbles were removed and 8 data points were generated. […]

[2] = tested on: BxPC-3 cells; test: MTS cytotoxicity assay, BxPC-3; assay type: cell-based; conditions: 37 °C, triplicate, at least three experiments, errors = transformed greater extreme of standard error, read-out: BxPC-3 cell growth inhibition IC50
Method: (§1) CUSTOM_[…] ("<1>=[N+]",("charge", 0, 2)) […]
(§2) CUSTOM_[…] ("<1>=[N]=[N]",("bond",1,(2,3))) […]
(§3) CUSTOM_[…] ("<1>([C]=[C])=[N][N]",("bond",1,(3,5))) […]
(§4) The MiaPaCa-2 cell line, BxPC-3 cell line and AsPC-1 cell line were purchased from the European Collection of Cell Cultures (ECACC, Porton Down, UK). MiaPaCa-2 cells were cultured in DMEM media with 2 mM L-glutamine, 100 U/mL penicillin, 100 µg/mL streptomycin and 10% FCS.
(§5) BxPC-3 cells and AsPC-1 cells were cultured in RPMI-1640 media containing 2 mM L-glutamine, 100 U/mL penicillin, 100 µg/mL streptomycin and 10% FCS. Cells were sub-cultured twice weekly and maintained at 37 °C and 5% CO2.
(§6) The anti-proliferative activity of the compounds studied was assessed by MTS assay (Promega) following the manufacturer’s instructions. Cells were seeded at 5 x 103 / 100 μL in a 96-well plate and left untreated or treated with DMSO (vehicle control), or compounds 1-4 (100 μM – […], in well concentration) in triplicate for 72 h at 37 °C with 5% CO2. Following this, MTS assay reagent was added to each well and the plates incubated for 4 h at 37 °C with 5% CO2. The absorbance was measured at 492 nm using the BMG Labtech POLARstarOPTIMA microplate reader. […]

[3] = tested on: MiaPaCa-2 cells; test: MTS cytotoxicity assay, MiaPaCa-2; assay type: cell-based; conditions: 37 °C, triplicate, at least three experiments, errors = transformed greater extreme of standard error, read-out: MiaPaCa-2 cell growth inhibition IC50
Method: as §1, §2, §3, §4, §5, §6

[4] = tested on: AsPC-1 cells; test: MTS cytotoxicity assay, AsPC-1; assay type: cell-based; conditions: 37 °C, triplicate, at least three experiments, errors = transformed greater extreme of standard error, read-out: AsPC-1 cell growth inhibition IC50
Method: as §1, §2, §3, §4, §5, §6

[5] = Table S2, binding inhibition of FITC-NoxaB to Mcl-1, small molecules not tested against cell lines, at least three experiments, errors = transformed greater extreme of standard error, SEM, read-out: FA IC50
[6] = Table 1, inhibition of binding of 5 nM FITC-NoxaB to 10 nM Mcl-1, PBS, 0.05% Tween-20, pH 7.4, non-linear regression of at least three experiments, errors = transformed greater extreme of standard error, [b] <100 means <100 μM and >10 μM, accurate value not determined, read-out: FA IC50
[7] = Table 2, inhibition of binding of 5 nM FITC-NoxaB to 10 nM Mcl-1, PBS, 0.05% Tween-20, pH 7.4, non-linear regression of at least three experiments, errors = transformed greater extreme of standard error, SEM, read-out: FA IC50
[8] = Table S1, binding inhibition of FITC-NoxaB to Mcl-1, * less than 100 µM and greater than 10 µM, accurate IC50 not determined, read-out: FA IC50
[9] = Table S2, binding inhibition of FITC-NoxaB to Mcl-1, small molecules not tested against cell lines, at least three experiments, errors = transformed greater extreme of standard error, read-out: FA IC50
[10] = Table 1, inhibition of binding of 5 nM FITC-NoxaB to 10 nM Mcl-1, PBS, 0.05% Tween-20, pH 7.4, non-linear regression of at least three experiments, errors = transformed greater extreme of standard error, [b] <100 means <100 μM and >10 μM, accurate value not determined, SEM, read-out: FA IC50

CC(C)C[C@H](NC(=O)[C@H](CC(C)C)NC(=O)[C@H](CCCCN)NC(=O)[C@H](CCC(N)=O)NC(=O)[C@H](CCCNC(=N)N)NC(=O)[C@H](CC(C)C)NC(=O)[C@H](CC(N)=O)NC(=O)[C@@H](NC(=O)[C@H](CCCCN)NC(=O)Cn1cc(-c2ccc([N+](=O)[O-])cc2)nn1)C(C)C)C(=O)N[C@@H](CC(N)=O)C(N)=O [Compound 11] (X3-KVNLRQKLLN-NH2)
IC50 ([1]; SEM, read-out: FA IC50): 3.5 ± 1.5 µM

O=C(O)Cn1cc(-c2ccc([N+](=O)[O-])cc2)nn1 [Compound S11]
IC50 [1, 5]: 0.561 ± 0.13 µM

COC(=O)[C@H](Cc1cn(CC(=O)O)nn1)NC(=O)OCC1c2ccccc2-c2ccccc21 [Compound S16]
IC50 [1, 5]: 5.28 ± 1.69 µM

KVNLRQKLLN [Compound 15]
IC50 [1, 6]: < 100 µM

Cc1ccc(-c2cn(CC(=O)O)nn2)c(C)c1 [Compound S12]
IC50 [1, 5]: 0.766 ± 0.484 µM

extended NoxaB peptide: the two NoxaB peptide fragments clicked together by CuAAC (AAQLRRIGDXKVNLRQKLLN; N-terminal acetyl)
IC50 ([1]; 5 nM FITC-NoxaB, 10 nM Mcl-1, read-out: IC50 (competitive FA assay, Mcl-1)): 7.23 ± 0.88 µM

Fc1ccccc1Cn1cc(C2=CCCCC2)nn1 [Compound 19]
IC50 ([2]; 72 h, SEM): 21.6 ± 8.83 µM
IC50 ([3]; 72 h): > 100 µM
IC50 [1, 7]: 0.217 ± 0.058 µM
IC50 ([4]; 72 h): > 100 µM

CCOc1ccc(-c2cn(CC(=O)O)nn2)cc1 [Compound S13]
IC50 [1, 5]: 1.32 ± 1.1 µM

CCC(C)c1cn(Cc2ccccc2)nn1 (stereo not shown) [Compound S15]
IC50 [1, 5]: 3.31 ± 0.488 µM

C1=C(c2cn(Cc3ccccc3)nn2)CCCC1 [Compound 22, 1-benzyl-4-(cyclohex-1-en-1-yl)-1H-1,2,3-triazole]
IC50 ([2]; Homo sapiens, BXPC-3, 72 h): > 100 µM
IC50 ([3]; Homo sapiens, MIA PaCa-2, 72 h): > 100 µM
IC50 ([1]; SEM, read-out: FA IC50): 1.68 ± 0.694 µM
IC50 ([4]; Homo sapiens, ASPC1, 72 h): > 100 µM

CC(C)C[C@H](NC(=O)[C@H](CC(C)C)NC(=O)[C@H](CCCCN)NC(=O)[C@H](CCC(N)=O)NC(=O)[C@H](CCCNC(=N)N)NC(=O)[C@H](CC(C)C)NC(=O)[C@H](CC(N)=O)NC(=O)[C@@H](NC(=O)[C@H](CCCCN)NC(=O)Cn1cc(-c2ccc(Cl)cc2Cl)nn1)C(C)C)C(=O)N[C@@H](CC(N)=O)C(N)=O [Compound 14] (X1-KVNLRQKLLN-NH2)
IC50 ([1]; SEM, read-out: FA IC50): 8.3 ± 3.6 µM

Clc1ccc(-c2cn(Cc3ccccc3)nn2)c(Cl)c1 [Compound 25, 1-benzyl-4-(2,4-dichlorophenyl)-1H-1,2,3-triazole]
IC50 ([2]; Homo sapiens, BXPC-3, 72 h): > 100 µM
IC50 ([3]; Homo sapiens, MIA PaCa-2, 72 h): > 100 µM
IC50 ([1]; SEM, read-out: FA IC50): 5.5 ± 3.92 µM
IC50 ([4]; Homo sapiens, ASPC1, 72 h): > 100 µM

KVNLRQKLLN [Compound S2]
IC50 [1, 8]: < 100 µM

CC[C@H](C)[C@H](NC(=O)[C@H](CCCNC(=N)N)NC(=O)[C@H](CCCNC(=N)N)NC(=O)[C@H](CC(C)C)NC(=O)[C@H](CCC(N)=O)NC(=O)[C@H](C)NC(=O)[C@H](C)NC(C)=O)C(=O)NCC(=O)N[C@@H](CC(=O)O)C(=O)N[C@@H](Cc1cn(Cc2ccccc2)nn1)C(N)=O [Compound 3]
IC50 ([1]; SEM, read-out: FA IC50): 0.7 ± 0.8 µM

CC[C@H](C)[C@H](NC(=O)[C@H](CCCNC(=N)N)NC(=O)[C@H](CCCNC(=N)N)NC(=O)[C@H](CC(C)C)NC(=O)[C@H](CCC(N)=O)NC(=O)[C@H](C)NC(=O)[C@H](C)NC(C)=O)C(=O)NCC(=O)N[C@@H](CC(=O)O)C(=O)N[C@@H](Cc1cn(CC(=O)O)nn1)C(N)=O [Compound 4]
IC50 ([1]; SEM, read-out: FA IC50): 5.8 ± 4.6 µM

CCCCCCCc1cn(C23CC4CC(CC(C4)C2)C3)nn1 [Compound S18]
IC50 [1, 9]: > 100 µM

COC(=O)[C@H](Cc1cn(Cc2ccccc2C)nn1)NC(=O)OCC1c2ccccc2-c2ccccc21 [Compound 24, methyl (S)-2-((((9H-fluoren-9-yl)methoxy)carbonyl)amino)-3-(1-(2-methylbenzyl)-1H-1,2,3-triazol-4-yl)propanoate]
IC50 ([2]; 72 h, SEM): 10.7 ± 2.72 µM
IC50 ([3]; 72 h, SEM): 2.14 ± 0.56 µM
IC50 [1, 7]: 2.21 ± 0.877 µM
IC50 ([4]; 72 h, SEM): 2.28 ± 1.44 µM

COC(=O)[C@H](Cc1cn(Cc2ccc(Br)cc2)nn1)NC(=O)OCC1c2ccccc2-c2ccccc21 [Compound S17]
IC50 [1, 9]: > 100 µM

CCCCCCCc1cn(Cc2ccccc2F)nn1 [Compound S19]
IC50 [1, 9]: > 100 µM

CCc1ccc(-c2cn(CC(=O)O)nn2)cc1 [Compound S10]
IC50 [1, 5]: 0.497 ± 0.367 µM

Fc1ccccc1Cn1cc(-c2ccccc2Cl)nn1 [Compound S14]
IC50 [1, 5]: 1.37 ± 0.938 µM

KVNLRQKLLN [Compound 10]
IC50 [1, 10]: 1.2 µM

CC(C)C[C@H](NC(=O)[C@H](CC(C)C)NC(=O)[C@H](CCCCN)NC(=O)[C@H](CCC(N)=O)NC(=O)[C@H](CCCNC(=N)N)NC(=O)[C@H](CC(C)C)NC(=O)[C@H](CC(N)=O)NC(=O)[C@@H](NC(=O)[C@H](CCCCN)NC(=O)Cn1cc(-c2c(O)ccc3ccccc23)nn1)C(C)C)C(=O)N[C@@H](CC(N)=O)C(N)=O [Compound 13] (X4-KVNLRQKLLN-NH2)
IC50 ([1]; SEM, read-out: FA IC50): 8.2 ± 1.9 µM

AAQLRRIGD [Compound S1]
IC50 [1, 8]: < 100 µM

COc1ccc(OC)c(-c2cn(CC(=O)N[C@@H](CCCCN)C(=O)N[C@H](C(=O)N[C@@H](CC(N)=O)C(=O)N[C@@H](CC(C)C)C(=O)N[C@@H](CCCNC(=N)N)C(=O)N[C@@H](CCC(N)=O)C(=O)N[C@@H](CCCCN)C(=O)N[C@@H](CC(C)C)C(=O)N[C@@H](CC(C)C)C(=O)N[C@@H](CC(N)=O)C(N)=O)C(C)C)nn2)c1 [Compound 9] (X2-KVNLRQKLLN-NH2)
IC50 ([1]; SEM, read-out: FA IC50): 0.1 ± 0.1 µM

AAQLRRIGD [Compound 5]
IC50 [1, 6]: < 100 µM

KVNLRQKLLN [Compound 12]
IC50 [1, 10]: 4.3 ± 0.9 µM

CC[C@H](C)[C@H](NC(=O)[C@H](CCCNC(=N)N)NC(=O)[C@H](CCCNC(=N)N)NC(=O)[C@H](CC(C)C)NC(=O)[C@H](CCC(N)=O)NC(=O)[C@H](C)NC(=O)[C@H](C)NC(C)=O)C(=O)NCC(=O)N[C@@H](CC(=O)O)C(=O)N[C@@H](Cc1cn(Cc2ccccc2F)nn1)C(N)=O [Compound 2]
IC50 ([1]; SEM, read-out: FA IC50): 0.4 ± 0.3 µM
